{
  "source": "patent EP4596537A1",
  "about": "“NOVEL FLUORENE DERIVATIVE COMPOUND AND USE THEREOF” (JD Bioscience Inc., priority 2022, dated 2024)",
  "key": {"[1]": {"tested_on": "liver cancer cells", "assay": "Growth inhibition (Cell Counting Kit-8), liver cancer cells", "type": "cell-based", "details": "24 hours, 0.5% FBS", "description": "In order to verify the growth inhibitory effect of Compound 1 on various normal and cancer cell lines, 25 types of cell lines listed in Table 7 below were tested. In detail, each cell was seeded at a density of 2 × 10^4 cells/well in a 96-well plate and cultured for 24 hours, and then the medium was replaced with a medium comprising 0.5% (for cancer cells) or 10% (for normal cells) FBS, and Compound 1 was treated at various concentrations. 24 hours later, 10 µL of Cell Counting Kit-8 (Dojindo Molecular Technologies) was added, and 1 hour later, absorbance at 480 nm was measured using a microplate reader (TECAN SPARK), and the results are shown in FIGS. 15 to 21."}, "[2]": {"tested_on": "HCT-116 colorectal cancer cell line", "assay": "Anticancer efficacy in HCT-116 colorectal cancer tumor model", "type": "in vivo, nude mice", "details": "for reduced tumor growth (tumor volume) compared to vehicle: 21 times, day 24", "description": "A colorectal cancer model was established by subcutaneously transplanting HCT-116 colorectal cancer cell line into nude mice. The colorectal cancer model was divided into the following three groups: Group 1 was administered a vehicle as a control group, Group 2 was administered 0.5 mg/kg of Compound 1, and Group 3 was administered 1.0 mg/kg of Compound 1. The drug was orally administered once a day for a total of 21 times. To evaluate the therapeutic efficacy, the tumor size was measured before drug administration and on days 3, 7, 10, 14, 17, 21, and 24 after drug administration. The tumor size was calculated as follows: Tumor size (mm^3) = (A×B^2)/2 [formula] wherein A and B represent the tumor long axis and short axis, respectively.\nIn addition, the body weight was measured before drug administration and on days 7, 14, and 21 after drug administration."}, "[3]": {"tested_on": "BALB/c male mice", "assay": "Graft-versus-host disease (GvHD) animal model", "type": "in vivo", "parameters": "change in body weight: unit not given here", "details": "for body weight of the GvHD in vivo model: compared to control group", "description": "5-week-old BALB/c male mice were acclimatized for 1 week and irradiated with 800 cGy of total body irradiation. Then, 5 × 10^6 bone marrow cells derived from C57BL/6J and 1 × 10^7 spleen cells were intravenously injected to establish a GvHD in vivo model (positive control). A syngeneic control group was established in the same manner as above, but BALB/c-derived bone marrow cells were selected as the injected bone marrow cells. Compound 1 Daily was established by daily oral gavage of1 mg/kg of Compound 1 to the GvHD in vivo model. Compound 1 Initial only was established by orally administering 1 mg/kg of Compound 1 to the GvHD in vivo model only for 6 days after model induction. The therapeutic effect of Compound 1 was verified by measuring the change in body weight every 3 days for each control and experimental group established as above, and the results are shown in FIG. 11 and Table 4. On day 14, the production of CD4^+IFNg^+ T cells, which is a major factor inducing GvHD, was measured in the spleens isolated from the mice, and the results are shown in FIG. 12 and Table 5."}, "[4]": {"tested_on": "C57BL6J mice", "assay": "Acute kidney ischemic reperfusion (IR) injury animal model", "type": "in vivo", "details": "4 µg/kg and 8 µg/kg via tail vein; vs vehicle-treated IR group", "description": "Vehicle and Compound 1 (4 µg/kg or 8 µg/kg) were administered to 8-week-old male C57BL6J mice via the tail vein 24 hours before, 1 hour before, and 12 hours after ischemic reperfusion (IR) surgery. The surgery was performed by blocking the artery leading to the kidney to induce ischemia for 37 minutes. The blocked artery was released, and 24 hours later, the mice were anesthetized and autopsied. Other part was used to synthesize cDNA, and a kidney damage marker, NGAL was identified by real-time PCR. And serum was separated from the blood, and creatinine, which is a kidney damage marker in the serum, was examined, and the results are shown in FIG. 3."}, "[5]": {"tested_on": "Mfn2^-/^- MEF cells", "assay": "Mitochondrial oxygen consumption rate (Seahorse), Charcot-Marie-Tooth disease model", "type": "cell-based, mouse", "details": "1 µM, 24 hours", "description": "To verify the functional loss due to mutation of MFN2 present in the outer mitochondrial membrane, which is the main cause of Charcot-Marie-Tooth disease, the mitochondrial oxygen consumption rate (OCR) was measured. In detail, Mfn2^+/^+ MEF cells (normal cells), which are mouse embryonic fibroblasts expressing Mfn2, and Mfn2^-/^- MEF cells not expressing Mfn2 were cultured at a density of 1 × 10^4 for 24 hours in a Seahorse XF24 culture dish using a DMEM medium supplemented with 10% FBS and penicillin/streptomycin. The cells were treated with DMSO as a vehicle and Compound 1 (1 µM) and cultured for another 24 hours. The mitochondrial oxygen consumption rate was measured using a […] (Agilent Technologies), and the results are shown in FIG. 13."}, "[6]": {"tested_on": "H9C2 cells", "assay": "Myocardial infarction cell model (hypoxia-reoxygenation)", "type": "cell-based, rat", "details": "1 µM", "description": "H9C2 cells, which are a rat […] cell line, were seeded at a density of 3 × 10^3 cells/well in a 96-well plate and cultured for 24 hours. The next day, the medium was replaced with FBS-free DMEM and cultured for an additional 24 hours. After replacing the medium with FBS-free DMEM again, 1 µM of Compound 1 was treated and cultured in a hypoxia chamber (1% oxygen, 5% CO2) for 2 hours (hypoxia). After replacing the medium with DMEM with 10% FBS, 1 µM of Compound 1 was treated and cultured in a CO2 incubator for 1 hour (reoxygenation). Apoptosis, mitochondrial superoxide levels, and intracellular calcium levels were measured, and the results are shown in FIGS. 4 and 5, respectively."}, "[7]": {"tested_on": "C57BL6J mice", "assay": "LPS-induced sepsis animal model, viability", "type": "in vivo", "details": "15 mg/kg i.p. 30 min before 50 mg/kg LPS", "description": "50 mg/kg of lipopolysaccharide (LPS) administration dose corresponds to the 'half lethal dose' that causes death of one half of the population within 24 hours. […] The animal experiment was conducted with six 8-week-old male C57BL6J mice per group. Each mouse was intraperitoneally administered 15 mg/kg of Compound 1 or pretreated with 100 µL of 10% DMSO (vehicle control). 30 minutes later, 50 mg/kg lipopolysaccharide was intraperitoneally injected into each mouse, and the viability was examined for 80 hours, and the results are shown in FIG. 9 and Table 2."}},
  "data": [
    {"smiles": "CC(C(=O)NNc1ccc(F)cc1)n1cc(-c2cc(F)cc3c2-c2ccccc2C3(O)C(F)(F)F)cn1", "note": "(centres unmarked) [Example 1, 2-(4-(2-fluoro-9-hydroxy-9-(trifluoromethyl)-9H-fluoren-4-yl)-1H-pyrazol-1-yl)-N'-(4-fluorophenyl)propanehydrazide]", "values": [
      {"measurement": "concentration at which viability began to rapidly decrease to 70% or less", "setting": "[1]", "value": 10, "unit": "µM"},
      {"measurement": "body weight change", "setting": "[2]; 0.5 mg/kg and 1.0 mg/kg oral, days 7, 14, 21", "value": "no significant body weight change"},
      {"measurement": "reduced tumor growth (tumor volume) compared to vehicle", "setting": "[2]; 0.5 mg/kg oral once a day", "value": 41, "unit": "%"},
      {"measurement": "reduced tumor growth (tumor volume) compared to vehicle", "setting": "[2]; 1.0 mg/kg oral once a day", "value": 49, "unit": "%"},
      {"measurement": "change in body weight", "setting": "[3]; Daily oral gavage 1 mg/kg, D0", "value": 0},
      {"measurement": "change in body weight", "setting": "[3]; Daily oral gavage 1 mg/kg, D3", "value": -14.77},
      {"measurement": "change in body weight", "setting": "[3]; Daily oral gavage 1 mg/kg, D6", "value": -22.95},
      {"measurement": "change in body weight", "setting": "[3]; Daily oral gavage 1 mg/kg, D9", "value": -19.07},
      {"measurement": "change in body weight", "setting": "[3]; Daily oral gavage 1 mg/kg, D12", "value": -16.1959},
      {"measurement": "body weight of the GvHD in vivo model", "setting": "[3]; Daily oral gavage 1 mg/kg", "value": "significantly recovered"},
      {"measurement": "change in body weight", "setting": "[3]; Initial only: 1 mg/kg oral for 6 days after model induction, D0", "value": 0},
      {"measurement": "change in body weight", "setting": "[3]; Initial only: 1 mg/kg oral for 6 days after model induction, D3", "value": -11.15},
      {"measurement": "change in body weight", "setting": "[3]; Initial only: 1 mg/kg oral for 6 days after model induction, D6", "value": -19.01},
      {"measurement": "change in body weight", "setting": "[3]; Initial only: 1 mg/kg oral for 6 days after model induction, D9", "value": -14.6667},
      {"measurement": "change in body weight", "setting": "[3]; Initial only: 1 mg/kg oral for 6 days after model induction, D12", "value": -11.99},
      {"measurement": "body weight of the GvHD in vivo model", "setting": "[3]; Initial only: 1 mg/kg oral for 6 days", "value": "significantly recovered"},
      {"measurement": "RNA expression of NGAL (kidney)", "setting": "[4]", "value": "significantly reduced"},
      {"measurement": "apoptosis of kidney tissue (TUNEL staining)", "setting": "[4]", "value": "significant reduction"},
      {"measurement": "renal tubular tissue damage (H&E staining)", "setting": "[4]", "value": "significant reduction"},
      {"measurement": "serum creatinine", "setting": "[4]", "value": "significantly reduced"},
      {"measurement": "mitochondrial oxygen consumption rate (OCR)", "setting": "[5]", "value": "markedly restored to a level comparable to that of normal cells"},
      {"measurement": "intracellular calcium (Rhod2 staining)", "setting": "[6]; hypoxia-reoxygenation", "value": "remarkably reduced"},
      {"measurement": "mitochondrial superoxide (MitoSOX staining)", "setting": "[6]; hypoxia-reoxygenation", "value": "remarkably reduced"},
      {"measurement": "apoptosis (TUNEL staining)", "setting": "[6]; hypoxia-reoxygenation (H/R)", "value": "markedly reduced"},
      {"measurement": "Viability (%)", "setting": "[7]; Time 0 h", "value": 100, "unit": "%"},
      {"measurement": "Viability (%)", "setting": "[7]; Time 20 h", "value": 100, "unit": "%"},
      {"measurement": "Viability (%)", "setting": "[7]; Time 60 h", "value": 50, "unit": "%"},
      {"measurement": "Viability (%)", "setting": "[7]; Time 70 h", "value": 50, "unit": "%"},
      {"measurement": "Viability (%)", "setting": "[7]; Time 80 h", "value": 50, "unit": "%"}
    ]}
  ]
}
